Laboratory results from patent US20100286145A1, “ISOPHTHALAMIDE DERIVATIVES INHIBITING BETA-SECRETASE ACTIVITY” (CoMentis, Inc., priority 2007, published 2010).
Like-named read-outs stand apart in the source and are kept apart here.

Assays:
[1] = test system: Aβ production in Chinese hamster ovary cells that over-express human APP695 with the London and Swedish mutations; assay: Cellular Aβ IC50 determination (Aβ40 sandwich ELISA); format: cell-based; conditions: Cricetulus griseus
How it was run: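 CHO cells overexpressing human APP695 with London and Swedish mutations, seeded at 10% confluency, treated with compounds up to about 4 μM final (0.4% DMSO). Secreted Aβ40 measured by sandwich ELISA relative to control and fitted to a 4-parameter IC50 model.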

[2] = biological target: memapsin 2 (Homo sapiens, UniProt P56817); assay: Inhibition of memapsin 2 beta-secretase activity (fluorogenic substrate FS-2); format: biochemical; conditions: memapsin 2, pH 4, 37° C., read-out: M2Ki
How it was run: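 Memapsin 2 pre-incubated 20 min with compound at pH 4, 37° C, then FS-2 substrate (MCA-SEVNLDAEFK-DNP, APP Swedish cleavage site) added. Rate of fluorescence increase compared with uninhibited controls, fitted to a tight-binding inhibition model.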

[3] = cellular Aβ production, read-out: IC50

Chain of memapsin 2 (P56817 46-501): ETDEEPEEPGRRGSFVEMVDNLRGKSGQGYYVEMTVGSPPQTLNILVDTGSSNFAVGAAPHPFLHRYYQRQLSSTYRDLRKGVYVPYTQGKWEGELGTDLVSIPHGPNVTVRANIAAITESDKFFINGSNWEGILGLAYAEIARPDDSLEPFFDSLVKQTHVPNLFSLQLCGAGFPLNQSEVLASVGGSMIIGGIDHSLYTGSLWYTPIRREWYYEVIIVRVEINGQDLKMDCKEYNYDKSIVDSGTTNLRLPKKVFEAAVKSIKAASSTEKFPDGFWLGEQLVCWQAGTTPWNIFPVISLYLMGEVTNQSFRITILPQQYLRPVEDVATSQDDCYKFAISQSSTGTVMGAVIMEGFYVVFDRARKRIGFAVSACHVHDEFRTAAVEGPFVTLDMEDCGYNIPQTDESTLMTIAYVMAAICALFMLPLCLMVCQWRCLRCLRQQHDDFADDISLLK

| IC50 [1, 3] | Ki ([2]; 20 minutes pre-incubation) | Ki ([2]; fluorogenic substrate FS-2) | Structure (SMILES) | IC50 [1] |
| --- | --- | --- | --- | --- |
| < 1000 nM | < 300 nM | – | Cc1csc(CN(C)C(=O)c2cccc(C(=O)N[C@@H](Cc3ccccc3)[C@H](O)CNCc3cncc(C(C)(C)C)c3)c2)n1 [Compound 190, N1-((2S,3R)-4-((5-tert-butylpyridin-3-yl)methylamino)-3-hydroxy-1-phenylbutan-2-yl)-N3-methyl-N3-((4-methylthiazol-2-yl)methyl)isophthalamide] | – |
| < 1000 nM | – | < 300 nM | CC(=O)c1cncc(CNC[C@@H](O)[C@H](Cc2ccccc2)NC(=O)c2cccc(C(=O)N(C)Cc3nc(C)cs3)c2)c1 [Compound 264, N1-((2S,3R)-4-((5-acetylpyridin-3-yl)methylamino)-3-hydroxy-1-phenylbutan-2-yl)-N3-methyl-N3-((4-methylthiazol-2-yl)methyl)isophthalamide] | – |
| < 1000 nM | 301 to 500 nM | – | COc1cccc(CNC[C@@H](O)[C@H](Cc2ccccc2)NC(=O)c2cccc(C(=O)N(C)Cc3ccc(C)o3)c2)c1 [Compound 18, N1-((2S,3R)-3-hydroxy-4-(3-methoxybenzylamino)-1-phenylbutan-2-yl)-N3-methyl-N3-((5-methylfuran-2-yl)methyl)isophthalamide] | – |
| < 1000 nM | < 300 nM | – | Cc1coc(CN(C)C(=O)c2cccc(C(=O)N[C@@H](Cc3ccccc3)[C@H](O)CNCc3cncc(C(C)C)c3)c2)n1 [Compound 95, N1-((2S,3R)-3-hydroxy-4-((5-isopropylpyridin-3-yl)methylamino)-1-phenylbutan-2-yl)-N3-methyl-N3-((4-methyloxazol-2-yl)methyl)isophthalamide] | – |
| < 1000 nM | < 300 nM | – | CC(=O)c1cccc(CNC[C@@H](O)[C@H](Cc2ccccc2)NC(=O)c2cc(C(=O)N[C@H](C)c3ccccc3)cc(N(C)S(C)(=O)=O)c2)c1 [Compound 126, N1-((2S,3R)-4-(3-acetylbenzylamino)-3-hydroxy-1-phenylbutan-2-yl)-5-(N-methylmethylsulfonamido)-N3-((R)-1-phenylethyl)isophthalamide] | – |
| < 1000 nM | < 300 nM | – | COC(=O)c1cccc(CNC[C@@H](O)[C@H](Cc2ccccc2)NC(=O)c2cc(C(=O)N[C@H](C)c3ccccc3)cc(N(C)S(C)(=O)=O)c2)c1 [Compound 96, methyl 3-(((2R,3S)-2-hydroxy-3-(3-(N-methylmethylsulfonamido)-5-((R)-1-phenylethylcarbamoyl)benzamido)-4-phenylbutylamino)methyl)benzoate] | – |
| < 1000 nM | < 300 nM | – | CCCN(Cc1nc(C)cs1)C(=O)c1cccc(C(=O)N[C@@H](Cc2ccccc2)[C@H](O)CNCc2cccc(OC)c2)c1 [Compound 11, N1-((2S,3R)-3-hydroxy-4-(3-methoxybenzylamino)-1-phenylbutan-2-yl)-N3-((4-methylthiazol-2-yl)methyl)-N3-propylisophthalamide] | – |
| 1000 to 5000 nM | 301 to 500 nM | – | Cc1csc(CN(C)C(=O)c2cccc(C(=O)N[C@@H](Cc3ccccc3)[C@H](O)CNCc3cncc(C#N)c3)c2)n1 [Compound 171, N1-((2S,3R)-4-((5-cyanopyridin-3-yl)methylamino)-3-hydroxy-1-phenylbutan-2-yl)-N3-methyl-N3-((4-methylthiazol-2-yl)methyl)isophthalamide] | – |
| < 1000 nM | < 300 nM | – | Cc1csc(CN(C)C(=O)c2cccc(C(=O)N[C@@H](Cc3ccccc3)[C@H](O)CNCc3cccc(C(C)(C)O)c3)c2)n1 [Compound 184, N1-((2S,3R)-3-hydroxy-4-(3-(2-hydroxypropan-2-yl)benzylamino)-1-phenylbutan-2-yl)-N3-methyl-N3-((4-methylthiazol-2-yl)methyl)isophthalamide] | – |
| > 5000 nM | 301 to 500 nM | – | COc1cc(CNC[C@@H](O)[C@H](Cc2ccccc2)NC(=O)c2cccc(C(=O)N(C)Cc3nc(C)cs3)c2)nc(N)n1 [Compound 207, N1-((2S,3R)-4-((2-amino-6-methoxypyrimidin-4-yl)methylamino)-3-hydroxy-1-phenylbutan-2-yl)-N3-methyl-N3-((4-methylthiazol-2-yl)methyl)isophthalamide] | – |
| < 1000 nM | < 300 nM | – | Cc1csc(CN(C)C(=O)c2cccc(C(=O)N[C@@H](Cc3ccccc3)[C@H](O)CNCc3cc(N(C)C)cc(N(C)C)c3)c2)n1 [Compound 185, N1-((2S,3R)-4-(3,5-bis(dimethylamino)benzylamino)-3-hydroxy-1-phenylbutan-2-yl)-N3-methyl-N3-((4-methylthiazol-2-yl)methyl)isophthalamide] | – |
| < 1000 nM | < 300 nM | – | CNc1cc(CNC[C@@H](O)[C@H](Cc2ccccc2)NC(=O)c2cccc(C(=O)N(C)Cc3nc(C)cs3)c2)cc(C(C)C)c1 [Compound 133, N1-((2S,3R)-3-hydroxy-4-(3-isopropyl-5-(methylamino)benzylamino)-1-phenylbutan-2-yl)-N3-methyl-N3-((4-methylthiazol-2-yl)methyl)isophthalamide] | – |
| < 1000 nM | – | < 300 nM | Cc1csc(CN(C)C(=O)c2cc(C(=O)N[C@@H](Cc3ccccc3)[C@H](O)CNCc3cncc(C(C)C)c3)cc(-c3ccco3)c2)n1 [Compound 252, 5-(furan-2-yl)-N1-((2S,3R)-3-hydroxy-4-((5-isopropylpyridin-3-yl)methylamino)-1-phenylbutan-2-yl)-N3-methyl-N3-((4-methylthiazol-2-yl)methyl)isophthalamide] | – |
| < 1000 nM | < 300 nM | – | COc1cccc(CNC[C@@H](O)[C@H](Cc2ccccc2)NC(=O)c2cc(C(=O)N(C)Cc3nc(C)cs3)cc(C(C)(C)C)c2)c1 [Compound 2, 5-tert-butyl-N1-((2S,3R)-3-hydroxy-4-(3-methoxybenzylamino)-1-phenylbutan-2-yl)-N3-methyl-N3-((4-methylthiazol-2-yl)methyl)isophthalamide] | – |
| < 1000 nM | – | < 300 nM | Cc1csc(CN(C)C(=O)c2cc(C(=O)N[C@@H](Cc3ccccc3)[C@H](O)CNCc3cncc(C(C)C)c3)cc(-c3nccn3C)c2)n1 [Compound 271, N1-((2S,3R)-3-hydroxy-4-((5-isopropylpyridin-3-yl)methylamino)-1-phenylbutan-2-yl)-N3-methyl-5-(1-methyl-1H-imidazol-2-yl)-N3-((4-methylthiazol-2-yl)methyl)isophthalamide] | – |
| < 1000 nM | < 300 nM | – | Cc1csc(CN(C)C(=O)c2cccc(C(=O)N[C@@H](Cc3ccccc3)[C@H](O)CNCc3cc(C(C)C)cnc3F)c2)n1 [Compound 56, N1-((2S,3R)-4-((2-fluoro-5-isopropylpyridin-3-yl)methylamino)-3-hydroxy-1-phenylbutan-2-yl)-N3-methyl-N3-((4-methylthiazol-2-yl)methyl)isophthalamide] | – |
| < 1000 nM | – | < 300 nM | COc1cc(CNC[C@@H](O)[C@H](Cc2ccccc2)NC(=O)c2cccc(C(=O)N(C)Cc3nc(C)cs3)c2)cc([N+](=O)[O-])c1 [Compound 221, N1-((2S,3R)-3-hydroxy-4-(3-methoxy-5-nitrobenzylamino)-1-phenylbutan-2-yl)-N3-methyl-N3-((4-methylthiazol-2-yl)methyl)isophthalamide] | – |
| < 1000 nM | – | < 300 nM | Cc1csc(CN(C)C(=O)c2cc(C(=O)N[C@@H](Cc3ccccc3)[C@H](O)CNCc3cncc(C(C)C)c3)cc(N3CCC(O)C3)c2)n1 (stereo partly drawn) [Compound 242, N1-((2S,3R)-3-hydroxy-4-((5-isopropylpyridin-3-yl)methylamino)-1-phenylbutan-2-yl)-5-(3-hydroxypyrrolidin-1-yl)-N3-methyl-N3-((4-methylthiazol-2-yl)methyl)isophthalamide] | – |
| < 1000 nM | – | < 300 nM | Cc1csc(CN(C)C(=O)c2cc(C(=O)N[C@@H](Cc3ccccc3)[C@H](O)CNCc3cncc(C(C)C)c3)cc(C(C)C)c2)n1 [Compound 274, N1-((2S,3R)-3-hydroxy-4-((5-isopropylpyridin-3-yl)methylamino)-1-phenylbutan-2-yl)-5-isopropyl-N3-methyl-N3-((4-methylthiazol-2-yl)methyl)isophthalamide] | – |
| < 1000 nM | – | < 300 nM | Cc1csc(CN(C)C(=O)c2cc(C(=O)N[C@@H](Cc3ccccc3)[C@H](O)CNCc3cncc(C(C)(C)F)c3)cc(C(F)F)c2)n1 [Compound 293, 5-(difluoromethyl)-N1-((2S,3R)-4-((5-(2-fluoropropan-2-yl)pyridin-3-yl)methylamino)-3-hydroxy-1-phenylbutan-2-yl)-N3-methyl-N3-((4-methylthiazol-2-yl)methyl)isophthalamide] | – |
| < 1000 nM | – | < 300 nM | Cc1noc(CN(C)C(=O)c2cccc(C(=O)N[C@@H](Cc3ccccc3)[C@H](O)CNCc3cncc(C(C)C)c3)c2)n1 [Compound 235, N1-((2S,3R)-3-hydroxy-4-((5-isopropylpyridin-3-yl)methylamino)-1-phenylbutan-2-yl)-N3-methyl-N3-((3-methyl-1,2,4-oxadiazol-5-yl)methyl)isophthalamide] | – |
| < 1000 nM | > 501 nM | – | Cc1cccc(CNC[C@@H](O)[C@H](Cc2ccccc2)NC(=O)c2cccc(C(=O)N(C)Cc3nc(C)cs3)c2)n1 [Compound 115, N1-((2S,3R)-3-hydroxy-4-((6-methylpyridin-2-yl)methylamino)-1-phenylbutan-2-yl)-N3-methyl-N3-((4-methylthiazol-2-yl)methyl)isophthalamide] | – |

| Structure (SMILES) | IC50 [1, 3] | Ki ([2]; 20 minutes pre-incubation) | Ki ([2]; fluorogenic substrate FS-2) | IC50 [1] |
| --- | --- | --- | --- | --- |
| Cc1csc(CN(C)C(=O)c2cccc(C(=O)N[C@@H](Cc3ccccc3)[C@H](O)CNCc3cc(OC(=O)N4CCOCC4)cc(C(C)C)c3)c2)n1 [Compound 234, 3-(((2R,3S)-2-hydroxy-3-(3-(methyl((4-methylthiazol-2-yl)methyl)carbamoyl)benzamido)-4-phenylbutylamino)methyl)-5-isopropylphenyl morpholine-4-carboxylate] | – | – | < 300 nM | < 1000 nM |
